These results are taken from ChEMBL document CHEMBL3877302, “Design and Synthesis of a New Series of 4-Heteroarylamino-1'-azaspiro[oxazole-5,3'-bicyclo[2.2.2]octanes as α7 Nicotinic Receptor Agonists. 1. Development of Pharmacophore and Early Structure-Activity Relationship” (J Med Chem, 2016).

Data set [1] can be described thus: Selectivity ratio of IC50 for human 5-HT3A expressed in HEK293 cells to EC50 for rat alpha7 nAChR expressed in HEK293 cells co-expressing human RIC3. It is filed as ADME, cell-based.
In data set [2] the target is T1, 5-hydroxytryptamine receptor 3A (Homo sapiens, UniProt P46098).
T1 sequence (P46098 whole entry): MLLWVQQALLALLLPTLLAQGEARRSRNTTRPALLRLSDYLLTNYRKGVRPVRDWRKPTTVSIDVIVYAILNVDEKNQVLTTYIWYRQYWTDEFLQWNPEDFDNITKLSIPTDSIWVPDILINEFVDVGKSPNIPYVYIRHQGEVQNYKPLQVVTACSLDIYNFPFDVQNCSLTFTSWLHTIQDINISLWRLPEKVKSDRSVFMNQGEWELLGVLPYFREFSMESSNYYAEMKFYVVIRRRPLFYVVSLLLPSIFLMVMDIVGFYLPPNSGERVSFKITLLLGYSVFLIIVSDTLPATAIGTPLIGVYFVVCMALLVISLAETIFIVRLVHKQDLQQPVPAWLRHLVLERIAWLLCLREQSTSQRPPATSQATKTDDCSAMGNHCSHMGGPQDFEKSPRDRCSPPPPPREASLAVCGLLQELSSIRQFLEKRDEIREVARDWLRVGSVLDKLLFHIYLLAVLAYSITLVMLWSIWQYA
The experiment in a line: Antagonist activity at human 5-HT3A expressed in HEK293 cells assessed as reduction in acetylcholine-induced activity preincubated for 30 mins followed by addition of acetylcholine measured for 2 mins by Fluo-4AM dye based FLIPR assay. Format: cell-based.

Data set [3] addresses T2, Neuronal acetylcholine receptor subunit alpha-7 (Rattus norvegicus, UniProt Q05941). As to the kind of experiment: Agonist activity at rat alpha7 nAChR expressed in HEK293 cells co-expressing human RIC3 measured for 2 mins by FLIPR assay. It is filed as cell-based.
Data set [4] addresses T2, Neuronal acetylcholine receptor subunit alpha-7. The experiment in a line: Partial agonist activity at rat alpha7 nAChR expressed in HEK293 cells co-expressing human RIC3 at holding potential of -90 mV by whole-cell voltage clamp technique. It is filed as cell-based.
A further data set concerns the target T3, 5-HT3A (Homo sapiens, UniProt P46098).
T3 sequence (P46098 whole entry): T1 sequence (P46098 whole entry)
The experiment in a line: Antagonist activity at 5-HT3A (unknown origin) at 10 uM.

T2 sequence (Q05941 whole entry): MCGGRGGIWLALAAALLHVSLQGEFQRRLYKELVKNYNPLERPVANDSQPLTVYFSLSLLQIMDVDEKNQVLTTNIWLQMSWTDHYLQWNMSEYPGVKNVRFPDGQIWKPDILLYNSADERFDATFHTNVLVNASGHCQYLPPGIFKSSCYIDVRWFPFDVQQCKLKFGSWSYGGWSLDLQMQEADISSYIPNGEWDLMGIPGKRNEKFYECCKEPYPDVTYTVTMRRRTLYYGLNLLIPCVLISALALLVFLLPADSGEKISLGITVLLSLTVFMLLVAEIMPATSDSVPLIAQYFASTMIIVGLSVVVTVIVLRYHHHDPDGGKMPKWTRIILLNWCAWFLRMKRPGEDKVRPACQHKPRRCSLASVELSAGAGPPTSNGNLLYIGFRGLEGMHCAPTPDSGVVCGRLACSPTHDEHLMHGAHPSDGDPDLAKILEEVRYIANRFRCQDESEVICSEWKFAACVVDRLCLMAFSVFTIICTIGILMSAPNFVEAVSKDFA

`c1ccc2sc(NC3=NCC4(CN5CCC4C5)O3)nc2c1` (racemic): the “Ratio IC50/EC50” value in data set [1] came to 0.06. The 50% inhibitory concentration (IC50) in data set [2] worked out at 35 nM. It took 260 nM to reach a half-maximal effect in data set [3] (EC50).
As to `c1csc(NC2=NCC3(CN4CCC3CC4)O2)n1` (racemic), the “Ratio IC50/EC50” value in data set [1] is 0.1. For the same compound, the figures for the EC50 in data set [4] and in data set [3] were 1300 nM and 200 nM, respectively. Also, the half-inhibitory concentration (IC50) in data set [2] came to 25 nM.
With `c1ccc2sc(NC3=NCC4(CN5CCCC4C5)O3)nc2c1` (racemic), the “Ratio IC50/EC50” value in data set [1] is under 0.01. In addition, the IC50 in data set [2] is 7 nM. The compound further had an EC50 in data set [3] of 700 nM.
Turning to `c1ccc2sc(NC3=NCC4(CN5CCC4CC5)O3)nc2c1` (racemic), the Ratio IC50/EC50 in data set [1] was in the range of 1 to 1.8. Besides, the results for the EC50 in data set [4] and in data set [3] were 500 nM and 20 to 21 nM, respectively. The IC50 in data set [2] lay in the range of 21 to 36 nM.
In the case of `Clc1ccc2nc(NC3=NCC4(CN5CCC4CC5)O3)sc2c1` (stereo unspecified), the “Ratio IC50/EC50” value in data set [1] is 53. The IC50 in data set [2] is 8100 nM. In data set [3], this compound came in with an EC50 of 150 nM.
The like results for `COc1cc2nc(NC3=NCC4(CN5CCC4CC5)O3)sc2cc1OC` (stereo unspecified) were, in that order, 3, 27000 nM and 11000 nM.
With `COc1cccc2sc(NC3=NCC4(CN5CCC4CC5)O3)nc12` (stereo unspecified), the “Ratio IC50/EC50” value in data set [1] amounted to 0.02. Besides, the IC50 in data set [2] is 13 nM. The same compound had a 50% effective concentration (EC50) in data set [3] of 830 nM.
The like results for `c1ccc(-c2ccc(NC3=NC[C@@]4(CN5CCC4CC5)O3)nc2)cc1` were, in that order, 30, 22000 nM and 750 nM.
The corresponding values for `CCOc1ccc2nc(NC3=NCC4(CN5CCC4CC5)O3)sc2c1` (stereo unspecified) are 42, 14000 nM and 320 nM.
The corresponding values for `COc1ccc2nc(NC3=NCCC4(CN5CCC4CC5)O3)sc2c1` (stereo unspecified) are 17, 64000 nM and 3700 nM.
Consider `c1ccc(-c2ccnc(NC3=NC[C@@]4(CN5CCC4CC5)O3)c2)cc1`, for which the Ratio IC50/EC50 in data set [1] lay within 9 to 9.6. Moreover, the concentration for half-maximal inhibition (IC50) in data set [2] worked out at 85 nM.
As for `COc1ccc2sc(NC3=NCC4(CN5CCC4CC5)O3)nc2c1` (stereo unspecified), the “Ratio IC50/EC50” value in data set [1] was found to be 0.02. Besides, the 50% inhibitory concentration (IC50) in data set [2] came to 19 nM. Further, the midpoint of the response in data set [3], the EC50, lay at 1100 nM.
For `O=C1NC[C@@]2(CN3CCC2CC3)O1`, the inhibition at 10 µM on 5-HT3A came out at 2.5%.
`c1nc2cc(NC3=NCC4(CN5CCC4CC5)O3)ccc2s1` (racemic): in data set [1], the “Ratio IC50/EC50” value was 13. In addition, the IC50 in data set [2] stood at 41000 nM. The compound also showed an EC50 in data set [3] of 3100 nM.
Take `c1ccc(-c2csc(NC3=NCC4(CN5CCC4CC5)O3)n2)cc1` (racemic): in data set [1], the “Ratio IC50/EC50” value stood at 0.02. In data set [2], the IC50 turned out to be 11 nM. In addition, the response in data set [3] was half-maximal at 450 nM (EC50).
Regarding `COc1ccc2nc(NC3=NCC4(CN5CCC4CC5)O3)sc2c1` (stereo unspecified), the “Ratio IC50/EC50” value in data set [1] is 153. Also, the values for the EC50 in data set [4] and in data set [3] were 600 nM and 120 nM, respectively. Moreover, the IC50 in data set [2] was determined as 19000 nM.
In the case of `c1cncc(/N=C2\NCC3(CN4CCC3CC4)O2)c1` (racemic), the “Ratio IC50/EC50” value in data set [1] is on record as 0.1. Besides, the IC50 in data set [2] was 2300 nM. Further, in data set [3], the EC50 is 21000 nM.
For the compound `c1ccc(NC2=NCC3(CN4CCC3CC4)O2)cc1` (racemic), the “Ratio IC50/EC50” value in data set [1] is 0.04. For the same compound, in data set [2], the half-maximal inhibitory concentration (IC50) was 230 nM. Further, in data set [3], it took 5400 nM to reach a half-maximal effect (EC50).
On to `c1ccc2sc(NC3=NCC4(CN5CCC[C@@H]4C5)O3)nc2c1` (mixture of isomers), for which the “Ratio IC50/EC50” value in data set [1] is listed as 3. Also, in data set [2], the IC50 amounted to 950 nM. For the same compound, the midpoint of the response in data set [3], the EC50, lay at 290 nM.
Consider `Cc1ccc2nc(NC3=NCC4(CN5CCC4CC5)O3)sc2c1` (stereo unspecified), for which the “Ratio IC50/EC50” value in data set [1] was found to be 32. Further, in data set [2], the half-inhibitory concentration (IC50) amounted to 3800 nM. The compound further registered an EC50 in data set [3] of 120 nM.
For `COc1ccc2nc(/N=C3/OC4(CN5CCC4CC5)CN3C)sc2c1` (stereo unspecified), in data set [2], the half-maximal inhibitory concentration (IC50) was over 100000 nM. Moreover, the EC50 in data set [3] was over 100000 nM.
Take `c1ccc(-c2cnc(NC3=NCC4(CN5CCC4CC5)O3)s2)cc1` (racemic): the Ratio IC50/EC50 in data set [1] fell in the range of 51 to 750. In data set [2], the IC50 came out at 20000 nM. Besides, the half-maximal effective concentration (EC50) in data set [3] turned out to be 400 nM.
Consider `c1ccc2c(NC3=NC[C@@]4(CN5CCC4CC5)O3)nccc2c1`, for which the EC50 in data set [3] came out at 210 nM.
As for `Oc1ccc2nc(NC3=NCC4(CN5CCC4CC5)O3)sc2c1` (stereo unspecified), in data set [1], the “Ratio IC50/EC50” value turned out to be 11. Further, in data set [2], the half-maximal inhibitory concentration (IC50) turned out to be 11000 nM. This compound registered an EC50 in data set [3] of 980 nM.
The corresponding values for `c1cc(NC2=NCC3(CN4CCC3CC4)O2)ccn1` (racemic) are 5, 58000 nM and 11000 nM.
In the case of `c1ccc2sc(NC3=NC[C@@]4(CN5CC[C@@H]4C5)O3)nc2c1`, the “Ratio IC50/EC50” value in data set [1] amounted to 22. Also, the values for the half-maximal effective concentration (EC50) in data set [4] and in data set [3] were 280 nM and 22 nM, respectively. In addition, in data set [2], the IC50 was determined as 480 nM.
As to `c1ccc2sc(NC3=NC[C@]4(CN5CCC4CC5)O3)nc2c1`, in data set [1], the “Ratio IC50/EC50” value is reported as 6. Also, the 50% inhibitory concentration (IC50) in data set [2] was 7300 nM. In addition, a half-maximal effect in data set [3] (EC50) was put at 1300 nM.
The corresponding values for `c1ccc2sc(NC3=NC[C@@]4(CN5CCC4CC5)O3)nc2c1` are 1, 21 nM and 21 nM.
The like results for `COc1ccc2nc(NC3=NC4(CO3)CN3CCC4CC3)sc2c1` (stereo unspecified) were, in that order, 6, 47000 nM and 7800 nM.
The corresponding values for `COc1ccc2nc(NC3=NC[C@]4(CN5CCC4CC5)O3)sc2c1` are 85, over 97000 nM and 1900 nM.
As to `c1ccc2nc(NC3=NC[C@@]4(CN5CCC4CC5)O3)ccc2c1`, the “Ratio IC50/EC50” value in data set [1] is on record as 0.3. Also, the concentration for half-maximal inhibition (IC50) in data set [2] was determined as 8 nM. In data set [3], this compound displayed an EC50 of 26 nM.
